Inhibition data for 20 compounds are collected here from patent US10081624B2, “Heterocyclic compound” (Takeda Pharmaceutical Company Limited, priority 2014, dated 2018).

One experiment addresses T1, HDAC6 enzyme (Homo sapiens, UniProt Q9UBN7).
T1 construct: prepared by transducing full length HDAC1 and HDAC6 genes into Sf-9 insect cells; GST; purchased SignalChem; host or cells: Sf-9 insect cells
T1 sequence (Q9UBN7 1-1215): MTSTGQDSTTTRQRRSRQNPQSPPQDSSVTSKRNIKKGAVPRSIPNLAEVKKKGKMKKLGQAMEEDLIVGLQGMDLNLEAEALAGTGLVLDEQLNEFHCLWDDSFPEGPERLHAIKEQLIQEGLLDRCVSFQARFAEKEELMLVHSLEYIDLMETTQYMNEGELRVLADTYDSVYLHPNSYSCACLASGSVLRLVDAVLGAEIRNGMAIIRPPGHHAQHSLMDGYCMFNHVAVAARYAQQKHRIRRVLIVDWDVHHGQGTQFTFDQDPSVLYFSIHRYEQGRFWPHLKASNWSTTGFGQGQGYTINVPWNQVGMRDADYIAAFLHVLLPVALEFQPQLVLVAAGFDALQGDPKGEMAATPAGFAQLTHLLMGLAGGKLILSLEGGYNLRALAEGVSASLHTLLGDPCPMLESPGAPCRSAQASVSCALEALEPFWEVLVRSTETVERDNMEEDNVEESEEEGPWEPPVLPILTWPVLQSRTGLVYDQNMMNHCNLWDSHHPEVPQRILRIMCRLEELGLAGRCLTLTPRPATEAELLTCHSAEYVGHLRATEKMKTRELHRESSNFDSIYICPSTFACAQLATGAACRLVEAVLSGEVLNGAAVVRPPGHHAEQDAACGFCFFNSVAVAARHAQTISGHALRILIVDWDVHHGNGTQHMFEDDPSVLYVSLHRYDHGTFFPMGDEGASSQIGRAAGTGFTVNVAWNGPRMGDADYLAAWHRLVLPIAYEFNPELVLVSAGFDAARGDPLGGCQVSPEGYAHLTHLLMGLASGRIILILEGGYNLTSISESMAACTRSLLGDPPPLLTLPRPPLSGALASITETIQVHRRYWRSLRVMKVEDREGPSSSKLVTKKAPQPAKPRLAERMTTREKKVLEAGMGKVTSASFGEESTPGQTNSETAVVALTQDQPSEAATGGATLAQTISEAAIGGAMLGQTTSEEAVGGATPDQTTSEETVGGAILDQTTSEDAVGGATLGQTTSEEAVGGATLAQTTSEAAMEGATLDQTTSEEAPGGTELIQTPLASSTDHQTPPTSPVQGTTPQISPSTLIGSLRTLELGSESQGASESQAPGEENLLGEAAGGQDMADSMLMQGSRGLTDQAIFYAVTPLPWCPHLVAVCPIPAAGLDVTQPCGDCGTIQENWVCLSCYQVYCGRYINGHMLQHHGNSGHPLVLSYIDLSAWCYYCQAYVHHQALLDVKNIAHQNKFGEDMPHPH
The experiment in a line: HDAC6 enzyme inhibitory assay (HDAC-Glo I/II Assay kit). In kind it is biochemical. As to conditions: 1 μM test compound; read-out: HDAC6 inhibitory rate (%) (1 μM). Summed up:
(§1)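 Relative activity was calculated from luminescence, with wells lacking enzyme defined as 100% inhibition. The enzymes were full-length HDAC1 or HDAC6 from Sf-9 cells, preincubated with test compound for 60 min before a 20-min substrate-developer reaction at room temperature.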

The target in another experiment is T2, HDAC1 enzyme (Homo sapiens, UniProt Q13547).
T2 construct: prepared by transducing full length HDAC1 and HDAC6 genes into Sf-9 insect cells; GST; purchased SignalChem; host or cells: Sf-9 insect cells
Nature of the experiment: HDAC1 enzyme inhibitory assay (HDAC-Glo I/II Assay kit). The class given is biochemical. As to conditions: 1 μM test compound; read-out: HDAC1 inhibitory rate (%) (1 μM). An outline of the steps: as §1

Structures are written as SMILES.

T2 sequence (Q13547 whole entry): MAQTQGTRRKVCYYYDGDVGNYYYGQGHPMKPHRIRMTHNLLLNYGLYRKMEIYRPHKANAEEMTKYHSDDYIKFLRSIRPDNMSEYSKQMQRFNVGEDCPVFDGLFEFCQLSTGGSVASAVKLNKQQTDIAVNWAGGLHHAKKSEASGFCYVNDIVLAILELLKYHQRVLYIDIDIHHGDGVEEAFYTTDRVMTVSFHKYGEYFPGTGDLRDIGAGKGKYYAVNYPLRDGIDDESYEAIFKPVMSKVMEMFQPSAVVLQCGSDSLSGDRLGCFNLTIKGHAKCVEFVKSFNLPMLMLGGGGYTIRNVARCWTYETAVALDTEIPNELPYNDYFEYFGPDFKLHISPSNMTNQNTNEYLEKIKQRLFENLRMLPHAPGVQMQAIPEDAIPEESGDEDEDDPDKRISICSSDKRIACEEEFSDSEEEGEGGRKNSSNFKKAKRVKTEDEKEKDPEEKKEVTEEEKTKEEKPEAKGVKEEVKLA

On to `Cc1ccsc1C(=O)N1CCOC[C@@H]1CNC(=O)c1ccc(-c2noc(C(F)(F)F)n2)cc1` [Example 74, N-(((3S)-4-((3-methyl-2-thienyl)carbonyl)morpholin-3-yl)methyl)-4-(5-(trifluoromethyl)-1,2,4-oxadiazol-3-yl)benzamide], for which the inhibition at 1 µM on HDAC6 enzyme was found to be 100%; at HDAC1 enzyme, 18%.
For `O=C(NC[C@H]1COCCN1C(=O)C1CCCC1)c1ccc(-c2noc(C(F)(F)F)n2)cc1` [Example 77, N-(((3S)-4-(cyclopentylcarbonyl)morpholin-3-yl)methyl)-4-(5-(trifluoromethyl)-1,2,4-oxadiazol-3-yl)benzamide], in that order: 98% and 18%.
As to `O=C(NC[C@H]1COCCN1C(=O)C1CCCCC1)c1ccc(-c2noc(C(F)(F)F)n2)cc1` [Example 80, N-(((3S)-4-(cyclohexylcarbonyl)morpholin-3-yl)methyl)-4-(5-(trifluoromethyl)-1,2,4-oxadiazol-3-yl)benzamide], the inhibition at 1 µM at HDAC6 enzyme worked out at 98%; on HDAC1 enzyme, 15%.
Turning to `Cn1nc2ccccc2c1C(=O)N1CCOC[C@@H]1CNC(=O)c1ccc(-c2noc(C(F)(F)F)n2)cc1` [Example 82, N-(((3S)-4-((2-methyl-2H-indazol-3-yl)carbonyl)morpholin-3-yl)methyl)-4-(5-(trifluoromethyl)-1,2,4-oxadiazol-3-yl)benzamide], the inhibition at 1 µM came out at 101% on HDAC6 enzyme and 60% on HDAC1 enzyme.
For `O=C(NC[C@H]1COCCN1C(=O)Cn1cnccc1=O)c1ccc(-c2noc(C(F)(F)F)n2)cc1` [Example 83, N-(((3S)-4-((6-oxopyrimidin-1(6H)-yl)acetyl)morpholin-3-yl)methyl)-4-(5-(trifluoromethyl)-1,2,4-oxadiazol-3-yl)benzamide] the same measures were 15% and 4%.
As for `CC(C)n1nccc1C(=O)N1CCOC[C@@H]1CNC(=O)c1ccc(-c2noc(C(F)(F)F)n2)cc1` [Example 84, N-(((3S)-4-((1-isopropyl-1H-pyrazol-5-yl)carbonyl)morpholin-3-yl)methyl)-4-(5-(trifluoromethyl)-1,2,4-oxadiazol-3-yl)benzamide], the inhibition at 1 µM worked out at 98% at HDAC6 enzyme and 53% at HDAC1 enzyme.
`Cn1cc2c(C(=O)N3CCOC[C@@H]3CNC(=O)c3ccc(-c4noc(C(F)(F)F)n4)cc3)cccc2n1` [Example 85, N-(((3S)-4-((2-methyl-2H-indazol-4-yl)carbonyl)morpholin-3-yl)methyl)-4-(5-(trifluoromethyl)-1,2,4-oxadiazol-3-yl)benzamide]: the figures for the inhibition at 1 µM on HDAC6 enzyme and at HDAC1 enzyme were 96% and 15%, respectively.
For the compound `N#Cc1cc(Cl)cc(C(=O)N2CCOC[C@@H]2CNC(=O)c2ccc(-c3noc(C(F)(F)F)n3)cc2)c1` [Example 86, N-(((3S)-4-(3-chloro-5-cyanobenzoyl)morpholin-3-yl)methyl)-4-(5-(trifluoromethyl)-1,2,4-oxadiazol-3-yl)benzamide], the inhibition at 1 µM came to 98% at HDAC6 enzyme and 24% at HDAC1 enzyme.
Regarding `Cc1cc(C#N)ccc1C(=O)N1CCOC[C@@H]1CNC(=O)c1ccc(-c2noc(C(F)(F)F)n2)cc1` [Example 87, N-(((3S)-4-(4-cyano-2-methylbenzoyl)morpholin-3-yl)methyl)-4-(5-(trifluoromethyl)-1,2,4-oxadiazol-3-yl)benzamide], the inhibition at 1 µM is 98% at HDAC6 enzyme and 29% at HDAC1 enzyme.
For `Cc1noc(C)c1C(=O)N1CCOC[C@@H]1CNC(=O)c1ccc(-c2noc(C(F)(F)F)n2)cc1` [Example 88, N-(((3S)-4-((3,5-dimethyl-1,2-oxazol-4-yl)carbonyl)morpholin-3-yl)methyl)-4-(5-(trifluoromethyl)-1,2,4-oxadiazol-3-yl)benzamide], in that order: 100% and 38%.
In the case of `O=C(NC[C@H]1COCCN1C(=O)N1CCCCC1)c1ccc(-c2noc(C(F)(F)F)n2)cc1` [Example 89, N-(((3S)-4-(piperidin-1-ylcarbonyl)morpholin-3-yl)methyl)-4-(5-(trifluoromethyl)-1,2,4-oxadiazol-3-yl)benzamide], the inhibition at 1 µM was 98% at HDAC6 enzyme and 12% on HDAC1 enzyme.
For `Cn1nc2ccccc2c1C(=O)N1CCOC[C@@H]1CC(=O)Nc1ccc(-c2noc(C(F)(F)F)n2)cc1` [Example 90, 2-((3S)-4-((2-methyl-2H-indazol-3-yl)carbonyl)morpholin-3-yl)-N-(4-(5-(trifluoromethyl)-1,2,4-oxadiazol-3-yl)phenyl)acetamide], in that order: 97% and 29%.
Turning to `Cc1nc2sccn2c1C(=O)N1CCOC[C@@H]1CNC(=O)c1ccc(-c2noc(C(F)(F)F)n2)cc1` [Example 91, N-(((3S)-4-((6-methylimidazo[2,1-b][1,3]thiazol-5-yl)carbonyl)morpholin-3-yl)methyl)-4-(5-(trifluoromethyl)-1,2,4-oxadiazol-3-yl)benzamide], the values for the inhibition at 1 µM on HDAC6 enzyme and on HDAC1 enzyme were 98% and 42%, respectively.
For `O=C(NC[C@H]1COCCN1C(=O)N1CCC[C@H]1CO)c1ccc(-c2noc(C(F)(F)F)n2)cc1` [Example 107, N-(((3S)-4-(((2S)-2-(hydroxymethyl)pyrrolidin-1-yl)carbonyl)morpholin-3-yl)methyl)-4-(5-(trifluoromethyl)-1,2,4-oxadiazol-3-yl)benzamide], in that order: 84% and 14%.
With `O=C(NC[C@H]1COCCN1C(=O)N1CCC[C@@H]1CO)c1ccc(-c2noc(C(F)(F)F)n2)cc1` [Example 108, N-(((3S)-4-(((2R)-2-(hydroxymethyl)pyrrolidin-1-yl)carbonyl)morpholin-3-yl)methyl)-4-(5-(trifluoromethyl)-1,2,4-oxadiazol-3-yl)benzamide], the inhibition at 1 µM was determined as 100% on HDAC6 enzyme and 2% on HDAC1 enzyme.
For `O=C(NC[C@H]1COCCN1C(=O)N1C2CCC1COC2)c1ccc(-c2noc(C(F)(F)F)n2)cc1` [Example 109, N-(((3S)-4-(3-oxa-8-azabicyclo[3.2.1]oct-8-ylcarbonyl)morpholin-3-yl)methyl)-4-(5-(trifluoromethyl)-1,2,4-oxadiazol-3-yl)benzamide], the results for the inhibition at 1 µM at HDAC6 enzyme and at HDAC1 enzyme were 99% and 10%, respectively.
For `O=C(NC[C@H]1COCCN1C(=O)N1CC2CCC(C1)O2)c1ccc(-c2noc(C(F)(F)F)n2)cc1` [Example 110, N-(((3S)-4-(8-oxa-3-azabicyclo[3.2.1]oct-3-ylcarbonyl)morpholin-3-yl)methyl)-4-(5-(trifluoromethyl)-1,2,4-oxadiazol-3-yl)benzamide] the same measures were 96% and 10%.
With `O=C(NC[C@@H]1COCCN1C(=O)c1cc2ccccc2o1)c1ccc(-c2noc(C(F)(F)F)n2)cc1` [Example 125, N-(((3R)-4-(1-benzofuran-2-ylcarbonyl)morpholin-3-yl)methyl)-4-(5-(trifluoromethyl)-1,2,4-oxadiazol-3-yl)benzamide], the inhibition at 1 µM at HDAC6 enzyme was 100%; at HDAC1 enzyme, 19%.
With `O=C(NC[C@@H]1COCCN1C(=O)C1(c2ccccc2)CC1)c1ccc(-c2noc(C(F)(F)F)n2)cc1` [Example 128, N-(((3R)-4-((1-phenylcyclopropyl)carbonyl)morpholin-3-yl)methyl)-4-(5-(trifluoromethyl)-1,2,4-oxadiazol-3-yl)benzamide], the figures for the inhibition at 1 µM on HDAC6 enzyme and at HDAC1 enzyme were 92% and 6%, respectively.
For `Cc1nonc1C(=O)N1CCOC[C@H]1CNC(=O)c1ccc(-c2noc(C(F)(F)F)n2)cc1` [Example 132, N-(((3R)-4-((4-methyl-1,2,5-oxadiazol-3-yl)carbonyl)morpholin-3-yl)methyl)-4-(5-(trifluoromethyl)-1,2,4-oxadiazol-3-yl)benzamide], in that order: 98% and 16%.
